The text below walks through data of patent US20250134898A1, “USE OF MELANOCORTIN-4 RECEPTOR AGONIST IN PREVENTING OR TREATING RARE GENETIC OBESITY DISEASE” (LG CHEM, LTD., priority 2022, published 2025).

Structures are written as SMILES.

The test system of assay [1] is Pomc heterozygous knock-out mice. The experiment in a line: Anti-obesity efficacy in high fat diet POMC heterozygous deficient mouse model. Conditions: 60 kcal % high-fat diet, 10 mg/kg or 30 mg/kg for about 3 weeks, FIG. 1. It is filed as in vivo. How it is done:
Pomc heterozygous knock-out mice, in which the Pomc gene encoding proopiomelanocortin (POMC) is not normally expressed, were fed a 60 kcal % high-fat diet (diet with 60 kcal % fat), while administering N-((3S,5S)-1-((3S,4R)-1-(tert-butyl)-4-(4-chlorophenyl)pyrrolidine-3-carbonyl)-5-(morpholine-4-carbonyl)pyrrolidin-3-yl)-N-((1s,4R)-4-methylcyclohexyl)isobutyramide hydrochloride (hereinafter referred to as “test compound”) obtained from the example of preparation at a dose of 10 mg/kg or 30 mg/kg for about 3 weeks to determine the anti-obesity efficacy, and the results are shown in FIG. 1.

For assay [2], the system named is Pomc homozygous knock-out mice. Description: Anti-obesity efficacy in high fat diet POMC homozygous deficient mouse model. It is filed as in vivo. Particulars: 45 kcal % high-fat diet, 10 mg/kg or 30 mg/kg for about 10 days, FIG. 2. How it is done:
Pomc homozygous knock-out mice, in which the Pomc gene encoding proopiomelanocortin (POMC) is not expressed, were administered with the test compound at a dose of 10 mg/kg or 30 mg/kg for about 10 days while fed a 45 kcal % high-fat diet (diet with 45 kcal % fat) to determine the anti-obesity efficacy, and the results are shown in FIG. 2.

In the case of `CC(C)C(=O)N([C@H]1C[C@@H](C(=O)N2CCOCC2)N(C(=O)[C@@H]2CN(C(C)(C)C)C[C@H]2c2ccc(Cl)cc2)C1)[C@H]1CC[C@@H](C)CC1.Cl` [test compound, N-((3S,5S)-1-((3S,4R)-1-(tert-butyl)-4-(4-chlorophenyl)pyrrolidine-3-carbonyl)-5-(morpholine-4-carbonyl)pyrrolidin-3-yl)-N-((1s,4R)-4-methylcyclohexyl)isobutyramide hydrochloride], the anti-obesity efficacy entry in assay [1] and in assay [2] was “excellent anti-obesity effects” each time.
